Test results taken from article PMC6136660 (Steroids, 2018).
Like-named read-outs stand apart in the source and are kept apart here.

Assay: SAD food effect cohort (8 mg/kg with high fat/high calorie meal) pharmacokinetics
Type: in vivo, human
Description: In the SAD part of the study, 7 cohorts were to be enrolled. Eight subjects were assigned to each of Cohorts 1 to 5 and 7 and received a single oral dose of vamorolone (planned as 0.1 mg/kg, 0.3 mg/kg, 1.0 mg/kg, 3.0 mg/kg, 8.0 mg/kg, and 20.0 mg/kg, respectively) or placebo under fasted conditions. Six subjects were assigned to Cohort 6 and were administered a single oral dose of 8.0 mg/kg vamorolone within 30 min of beginning a high fat/high calorie meal.
Subjects in Cohorts 1 through 5 and 7 were randomized to receive vamorolone or placebo in a 3:1 ratio (6 subjects received vamorolone, and 2 subjects received placebo) sequentially. In Cohort 1, 3 sentinel subjects were administered vamorolone or placebo in a 2:1 ratio. Following a review of sentinel safety and tolerability data (including reported adverse events [AEs], clinical laboratory tests, vital signs, and electrocardiograms [ECGs]), the remaining 5 subjects were randomized to receive vamorolone or placebo in a 4:1 ratio and dosed no earlier than 48 h after sentinel dosing. In Cohorts 2 to 5, and 7, subjects were administered vamorolone or placebo in a 3:1 ratio. Once Cohort 5 was completed and safety data had been reviewed, subjects in Cohort 6 were administered a single oral dose of 8.0 mg/kg vamorolone within 30 min of beginning a standard high fat/high calorie meal.

[1] = human, plasma, single oral 8 mg/kg, fed, geometric mean (%CV)

Structure (SMILES): C[C@@H]1C[C@H]2[C@@H]3CCC4=CC(=O)C=C[C@]4(C)C3=CC[C@]2(C)[C@@]1(O)C(=O)CO [vamorolone]
- AUC(0-t) ratio of the geometric means (8 mg/kg, fed vs fasted): 2.54
- AUC(inf) ratio of the geometric means (8 mg/kg, fed vs fasted): 2.82
- Cmax ratio of the geometric means (8 mg/kg, fed vs fasted): 2.53
- increase in bioavailability with a 40 g fat meal (8 mg/kg, fed vs fasted): 250%
- increase in Cmax, AUC(0-t), and AUC(inf) under fed conditions (8 mg/kg, high calorie/high fat meal (40 g fat) vs fasted): 2.5 fold
- increase in Tmax under fed conditions (8 mg/kg, high calorie/high fat meal vs fasted): ~ 2 fold
- AUC(0-inf) [1]: 10200 ng·h/mL
- AUC(0-t) [1]: 10100 ng·h/mL
- Cmax [1]: 1820 ng/mL
- CL/F (human, plasma, single oral 8 mg/kg, fed, geometric mean (%CV), read-out: CL/F (converted)): 13.2 mL/min/kg
- Vd/F (human, plasma, single oral 8 mg/kg, fed, geometric mean (%CV), read-out: Vz/F): 2.67 L/kg
- half-life (human, plasma, single oral 8 mg/kg, fed, geometric mean (%CV), read-out: t½ (converted)): 2.35 h
- k el (human, plasma, single oral 8 mg/kg, fed, geometric mean (%CV), read-out: λz (converted)): 8.19e-05 s⁻¹
- Tmax (human, plasma, single oral 8 mg/kg, fed, median): 4 h
- CL/F (single oral 8 mg/kg, fed, geometric mean (%CV)): 66.7 (28.4) (6) L/h
